How the values were obtained:
[1] = molecular target: Activated CDC42 kinase 1 (Homo sapiens) (UniProt Q07912); assay: Inhibition of TNK2 at 10 uM
[2] = molecular target: Epidermal growth factor receptor (Homo sapiens) (UniProt P00533); assay: Inhibition of EGFR at 10 uM
[3] = molecular target: Ephrin type-A receptor 1 (Homo sapiens) (UniProt P21709); assay: Inhibition of EPHA1 at 10 uM
[4] = molecular target: Ephrin type-A receptor 5 (Homo sapiens) (UniProt P54756); assay: Inhibition of EPHA5 at 10 uM
[5] = molecular target: Tyrosine-protein kinase Fer (Homo sapiens) (UniProt P16591); assay: Inhibition of FER at 10 uM
[6] = molecular target: Tyrosine-protein kinase ITK/TSK (Homo sapiens) (UniProt Q08881); assay: Inhibition of ITK at 10 uM
[7] = molecular target: Vascular endothelial growth factor receptor 2 (Homo sapiens) (UniProt P35968); assay: Inhibition of KDR at 10 uM
[8] = molecular target: Mast/stem cell growth factor receptor Kit (Homo sapiens) (UniProt P10721); assay: Inhibition of KIT at 10 uM
[9] = molecular target: Tyrosine-protein kinase Lck (Homo sapiens) (UniProt P06239); assay: Inhibition of LCK at 10 uM
[10] = molecular target: NPM/ALK (Nucleophosmin/ALK tyrosine kinase receptor) (Homo sapiens) (UniProt Q9UM73+P06748); assay: Inhibition of NPM1-ALK at 10 uM; type: protein-complex assay
[11] = Inhibition of SRM at 10 uM
[12] = molecular target: Tyrosine-protein kinase TXK (Homo sapiens) (UniProt P42681); assay: Inhibition of TXK at 10 uM
[13] = molecular target: Tyrosine-protein kinase ZAP-70 (Homo sapiens) (UniProt P43403); assay: Inhibition of ZAP70 at 10 uM
[14] = molecular target: Aurora kinase A (Homo sapiens) (UniProt O14965); assay: Inhibition of AurA at 10 uM
[15] = molecular target: Calcium/calmodulin-dependent protein kinase type II subunit gamma (Homo sapiens) (UniProt Q13555); assay: Inhibition of CaMK2g at 10 uM
[16] = molecular target: CDK6/cyclin D3 (Homo sapiens) (UniProt P30281+Q00534); assay: Inhibition of CDK6-CycD3 at 10 uM; type: protein-complex assay
[17] = molecular target: Serine/threonine-protein kinase Chk2 (Homo sapiens) (UniProt O96017); assay: Inhibition of CHK2 at 10 uM
[18] = molecular target: Casein kinase I isoform gamma-2 (Homo sapiens) (UniProt P78368); assay: Inhibition of CK1g2 at 10 uM
[19] = molecular target: Casein kinase I isoform gamma-3 (Homo sapiens) (UniProt Q9Y6M4); assay: Inhibition of CK1g3 at 10 uM
[20] = molecular target: Casein kinase II alpha/beta (Homo sapiens) (UniProt P67870+P68400); assay: Inhibition of CK2a1/b at 10 uM; type: protein-complex assay
[21] = molecular target: Dual specificity tyrosine-phosphorylation-regulated kinase 3 (Homo sapiens) (UniProt O43781); assay: Inhibition of DYRK3 at 10 uM
[22] = molecular target: Mitogen-activated protein kinase 7 (Homo sapiens) (UniProt Q13164); assay: Inhibition of Erk5 at 10 uM
[23] = molecular target: Glycogen synthase kinase-3 alpha (Homo sapiens) (UniProt P49840); assay: Inhibition of GSK3a at 10 uM
[24] = molecular target: Inhibitor of nuclear factor kappa-B kinase subunit epsilon (Homo sapiens) (UniProt Q14164); assay: Inhibition of IKKe at 10 uM
[25] = molecular target: Dual specificity mitogen-activated protein kinase kinase 7 (Homo sapiens) (UniProt O14733); assay: Inhibition of MAP2K7 at 10 uM
[26] = molecular target: Mitogen-activated protein kinase kinase kinase 2 (Homo sapiens) (UniProt Q9Y2U5); assay: Inhibition of MAP3K2 at 10 uM
[27] = molecular target: Serine/threonine-protein kinase MARK1 (Homo sapiens) (UniProt Q9P0L2); assay: Inhibition of MARK1 at 10 uM
[28] = molecular target: Serine/threonine-protein kinase MARK2 (Homo sapiens) (UniProt Q7KZI7); assay: Inhibition of MARK2 at 10 uM
[29] = molecular target: Maternal embryonic leucine zipper kinase (Homo sapiens) (UniProt Q14680); assay: Inhibition of MELK at 10 uM
[30] = molecular target: Mitogen-activated protein kinase kinase kinase 10 (Homo sapiens) (UniProt Q02779); assay: Inhibition of MLK2 at 10 uM
[31] = molecular target: MAP kinase-interacting serine/threonine-protein kinase 1 (Homo sapiens) (UniProt Q9BUB5); assay: Inhibition of MNK1 at 10 uM
[32] = molecular target: Ribosomal protein S6 kinase alpha-5 (Homo sapiens) (UniProt O75582); assay: Inhibition of MSK1 N-terminal at 10 uM
[33] = molecular target: Serine/threonine-protein kinase PAK 6 (Homo sapiens) (UniProt Q9NQU5); assay: Inhibition of PAK6 at 10 uM
[34] = molecular target: Protein kinase C beta type (Homo sapiens) (UniProt P05771); assay: Inhibition of PKCbeta1 at 10 uM
[35] = molecular target: Protein kinase C delta type (Homo sapiens) (UniProt Q05655); assay: Inhibition of PKCdelta at 10 uM
[36] = molecular target: Serine/threonine-protein kinase PLK4 (Homo sapiens) (UniProt O00444); assay: Inhibition of PLK4 at 10 uM
[37] = molecular target: cAMP-dependent protein kinase catalytic subunit PRKX (Homo sapiens) (UniProt P51817); assay: Inhibition of PRKX at 10 uM
[38] = molecular target: Ribosomal protein S6 kinase alpha-3 (Homo sapiens) (UniProt P51812); assay: Inhibition of RSK2 N-terminal at 10 uM
[39] = molecular target: Serine/threonine-protein kinase SIK1 (Homo sapiens) (UniProt P57059); assay: Inhibition of SIK at 10 uM
[40] = molecular target: SRSF protein kinase 2 (Homo sapiens) (UniProt P78362); assay: Inhibition of SRPK2 at 10 uM
TAK1/TAB1 (Homo sapiens) = TAK1/TAB1 (Homo sapiens) (UniProt Q15750+O43318); assay: Inhibition of TAK1-TAB1 at 10 uM; type: protein-complex assay
[41] = molecular target: Serine/threonine-protein kinase TBK1 (Homo sapiens) (UniProt Q9UHD2); assay: Inhibition of TBK1 at 10 uM

Tyrosine-protein kinase TXK (Homo sapiens), sequence (P42681 whole entry): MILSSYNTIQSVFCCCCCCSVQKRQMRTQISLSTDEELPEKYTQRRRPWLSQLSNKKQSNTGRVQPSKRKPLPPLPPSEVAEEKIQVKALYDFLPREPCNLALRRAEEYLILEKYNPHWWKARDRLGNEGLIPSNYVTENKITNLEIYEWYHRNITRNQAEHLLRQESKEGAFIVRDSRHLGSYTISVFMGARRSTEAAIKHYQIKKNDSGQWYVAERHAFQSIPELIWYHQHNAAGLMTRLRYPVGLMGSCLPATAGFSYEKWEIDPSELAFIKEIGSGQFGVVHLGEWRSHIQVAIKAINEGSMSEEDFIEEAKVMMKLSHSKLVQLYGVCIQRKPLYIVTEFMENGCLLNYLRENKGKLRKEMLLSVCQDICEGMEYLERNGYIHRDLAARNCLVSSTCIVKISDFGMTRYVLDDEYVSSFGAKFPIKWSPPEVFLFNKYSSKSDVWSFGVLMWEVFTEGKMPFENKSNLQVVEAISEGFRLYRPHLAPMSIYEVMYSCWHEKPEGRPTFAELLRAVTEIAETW
Serine/threonine-protein kinase PAK 6 (Homo sapiens), sequence (Q9NQU5 whole entry, looked up): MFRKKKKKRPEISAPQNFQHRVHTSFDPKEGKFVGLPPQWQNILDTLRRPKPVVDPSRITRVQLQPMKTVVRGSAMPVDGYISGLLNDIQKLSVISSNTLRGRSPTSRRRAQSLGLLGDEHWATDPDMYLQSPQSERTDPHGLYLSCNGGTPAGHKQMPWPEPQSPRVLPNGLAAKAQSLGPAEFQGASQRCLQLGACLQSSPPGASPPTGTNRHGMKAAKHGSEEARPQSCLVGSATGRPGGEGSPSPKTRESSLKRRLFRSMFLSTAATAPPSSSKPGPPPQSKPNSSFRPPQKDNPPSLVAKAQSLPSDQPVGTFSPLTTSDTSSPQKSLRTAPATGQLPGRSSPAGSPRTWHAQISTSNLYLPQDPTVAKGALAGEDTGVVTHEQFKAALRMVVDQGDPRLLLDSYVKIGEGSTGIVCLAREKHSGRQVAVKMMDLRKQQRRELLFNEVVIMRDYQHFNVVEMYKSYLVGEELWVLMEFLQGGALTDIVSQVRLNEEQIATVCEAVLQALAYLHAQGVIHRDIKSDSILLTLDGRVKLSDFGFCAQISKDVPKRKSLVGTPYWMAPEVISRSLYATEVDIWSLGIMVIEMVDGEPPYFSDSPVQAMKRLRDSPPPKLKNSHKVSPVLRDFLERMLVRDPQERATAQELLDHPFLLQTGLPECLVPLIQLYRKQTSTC
Ephrin type-A receptor 5 (Homo sapiens), sequence (P54756 whole entry): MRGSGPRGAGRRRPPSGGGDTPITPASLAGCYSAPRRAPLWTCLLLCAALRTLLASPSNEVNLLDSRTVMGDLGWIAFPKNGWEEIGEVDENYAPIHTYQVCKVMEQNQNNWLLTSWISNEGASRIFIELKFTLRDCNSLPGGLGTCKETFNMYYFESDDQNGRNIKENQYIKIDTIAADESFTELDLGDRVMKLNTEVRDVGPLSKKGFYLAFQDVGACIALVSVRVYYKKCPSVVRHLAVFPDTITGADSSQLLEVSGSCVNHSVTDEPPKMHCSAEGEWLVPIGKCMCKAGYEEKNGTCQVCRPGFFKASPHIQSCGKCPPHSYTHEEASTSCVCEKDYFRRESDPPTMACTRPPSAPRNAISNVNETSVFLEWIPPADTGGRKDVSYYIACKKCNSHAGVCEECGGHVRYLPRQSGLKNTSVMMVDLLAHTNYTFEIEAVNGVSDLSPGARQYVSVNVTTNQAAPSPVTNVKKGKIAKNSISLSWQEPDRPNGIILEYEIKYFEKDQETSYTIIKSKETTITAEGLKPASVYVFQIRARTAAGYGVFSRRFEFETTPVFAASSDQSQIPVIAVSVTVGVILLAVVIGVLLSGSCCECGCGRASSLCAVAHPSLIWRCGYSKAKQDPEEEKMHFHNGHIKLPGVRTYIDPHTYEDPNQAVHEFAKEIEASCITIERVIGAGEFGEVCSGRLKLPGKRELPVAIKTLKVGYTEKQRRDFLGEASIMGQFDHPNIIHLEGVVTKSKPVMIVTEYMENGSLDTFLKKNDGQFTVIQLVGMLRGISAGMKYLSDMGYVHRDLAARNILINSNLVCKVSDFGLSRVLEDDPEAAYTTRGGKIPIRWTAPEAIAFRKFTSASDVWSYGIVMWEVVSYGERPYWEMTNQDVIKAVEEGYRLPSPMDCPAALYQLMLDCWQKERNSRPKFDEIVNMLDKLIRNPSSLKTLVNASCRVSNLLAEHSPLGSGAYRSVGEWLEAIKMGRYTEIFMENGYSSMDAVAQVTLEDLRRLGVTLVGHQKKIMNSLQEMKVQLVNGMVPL
Mitogen-activated protein kinase kinase kinase 2 (Homo sapiens), sequence (Q9Y2U5 whole entry): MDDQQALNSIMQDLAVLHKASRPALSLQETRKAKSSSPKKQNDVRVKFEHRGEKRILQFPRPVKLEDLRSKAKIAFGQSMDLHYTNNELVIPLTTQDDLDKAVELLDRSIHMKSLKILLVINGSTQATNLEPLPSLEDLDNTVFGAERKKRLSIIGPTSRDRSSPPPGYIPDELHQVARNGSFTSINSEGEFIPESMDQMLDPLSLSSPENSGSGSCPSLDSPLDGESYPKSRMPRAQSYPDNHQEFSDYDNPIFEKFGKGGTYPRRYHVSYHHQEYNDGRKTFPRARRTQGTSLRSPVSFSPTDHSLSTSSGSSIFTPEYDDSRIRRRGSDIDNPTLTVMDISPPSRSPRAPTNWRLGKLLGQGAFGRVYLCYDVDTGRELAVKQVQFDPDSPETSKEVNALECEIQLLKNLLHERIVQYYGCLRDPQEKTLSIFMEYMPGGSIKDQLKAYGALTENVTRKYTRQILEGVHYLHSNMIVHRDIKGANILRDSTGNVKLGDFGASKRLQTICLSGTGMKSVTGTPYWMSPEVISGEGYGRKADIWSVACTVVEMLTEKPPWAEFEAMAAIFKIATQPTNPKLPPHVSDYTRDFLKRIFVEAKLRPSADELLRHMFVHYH
Activated CDC42 kinase 1 (Homo sapiens), sequence (Q07912 whole entry, looked up): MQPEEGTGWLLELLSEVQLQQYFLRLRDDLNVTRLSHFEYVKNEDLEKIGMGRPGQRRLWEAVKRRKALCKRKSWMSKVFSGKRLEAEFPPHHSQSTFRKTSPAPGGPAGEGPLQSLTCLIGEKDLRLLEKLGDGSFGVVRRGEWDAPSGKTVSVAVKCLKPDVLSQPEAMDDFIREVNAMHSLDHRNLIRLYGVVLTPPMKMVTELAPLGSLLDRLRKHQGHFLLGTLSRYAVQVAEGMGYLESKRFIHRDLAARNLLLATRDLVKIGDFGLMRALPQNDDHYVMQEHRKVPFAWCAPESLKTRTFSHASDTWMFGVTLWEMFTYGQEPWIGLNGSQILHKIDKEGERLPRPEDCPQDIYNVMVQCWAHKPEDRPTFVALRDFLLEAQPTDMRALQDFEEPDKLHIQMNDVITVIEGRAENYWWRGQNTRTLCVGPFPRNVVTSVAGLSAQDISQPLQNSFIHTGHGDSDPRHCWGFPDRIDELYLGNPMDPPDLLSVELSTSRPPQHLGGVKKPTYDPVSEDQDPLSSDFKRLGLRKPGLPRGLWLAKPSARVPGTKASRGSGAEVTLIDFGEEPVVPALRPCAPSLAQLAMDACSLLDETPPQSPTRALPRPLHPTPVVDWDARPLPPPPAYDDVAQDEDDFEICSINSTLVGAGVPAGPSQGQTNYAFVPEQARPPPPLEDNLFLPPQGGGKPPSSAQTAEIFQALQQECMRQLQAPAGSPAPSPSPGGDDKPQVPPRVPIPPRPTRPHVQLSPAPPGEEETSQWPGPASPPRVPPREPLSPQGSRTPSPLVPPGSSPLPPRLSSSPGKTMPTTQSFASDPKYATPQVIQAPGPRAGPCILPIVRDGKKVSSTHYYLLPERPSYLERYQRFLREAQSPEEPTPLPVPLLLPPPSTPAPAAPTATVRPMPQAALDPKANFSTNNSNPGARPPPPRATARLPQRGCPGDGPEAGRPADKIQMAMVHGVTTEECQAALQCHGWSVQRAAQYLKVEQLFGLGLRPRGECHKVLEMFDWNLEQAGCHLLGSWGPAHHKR
Serine/threonine-protein kinase MARK1 (Homo sapiens), sequence (Q9P0L2 whole entry, looked up): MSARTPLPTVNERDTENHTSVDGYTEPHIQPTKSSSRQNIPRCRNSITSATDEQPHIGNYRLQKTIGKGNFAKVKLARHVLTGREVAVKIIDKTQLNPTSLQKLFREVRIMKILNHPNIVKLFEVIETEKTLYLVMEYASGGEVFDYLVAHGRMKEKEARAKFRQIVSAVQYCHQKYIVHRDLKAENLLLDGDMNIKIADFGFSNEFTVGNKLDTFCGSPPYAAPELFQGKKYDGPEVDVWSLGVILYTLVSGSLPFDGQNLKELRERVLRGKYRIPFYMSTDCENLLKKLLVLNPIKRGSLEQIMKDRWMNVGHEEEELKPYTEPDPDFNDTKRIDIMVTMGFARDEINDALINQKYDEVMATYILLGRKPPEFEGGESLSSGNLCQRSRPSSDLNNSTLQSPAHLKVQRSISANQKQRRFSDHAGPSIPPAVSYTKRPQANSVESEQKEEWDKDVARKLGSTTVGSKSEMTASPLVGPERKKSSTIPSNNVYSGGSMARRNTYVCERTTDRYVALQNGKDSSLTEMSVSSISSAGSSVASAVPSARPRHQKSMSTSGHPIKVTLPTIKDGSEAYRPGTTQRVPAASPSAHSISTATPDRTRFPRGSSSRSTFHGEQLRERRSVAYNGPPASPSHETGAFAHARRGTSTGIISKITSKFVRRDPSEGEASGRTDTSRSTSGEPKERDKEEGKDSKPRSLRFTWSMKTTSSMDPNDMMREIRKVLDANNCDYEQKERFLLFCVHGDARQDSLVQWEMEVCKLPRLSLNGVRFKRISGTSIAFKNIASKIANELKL
cAMP-dependent protein kinase catalytic subunit PRKX (Homo sapiens), sequence (P51817 whole entry): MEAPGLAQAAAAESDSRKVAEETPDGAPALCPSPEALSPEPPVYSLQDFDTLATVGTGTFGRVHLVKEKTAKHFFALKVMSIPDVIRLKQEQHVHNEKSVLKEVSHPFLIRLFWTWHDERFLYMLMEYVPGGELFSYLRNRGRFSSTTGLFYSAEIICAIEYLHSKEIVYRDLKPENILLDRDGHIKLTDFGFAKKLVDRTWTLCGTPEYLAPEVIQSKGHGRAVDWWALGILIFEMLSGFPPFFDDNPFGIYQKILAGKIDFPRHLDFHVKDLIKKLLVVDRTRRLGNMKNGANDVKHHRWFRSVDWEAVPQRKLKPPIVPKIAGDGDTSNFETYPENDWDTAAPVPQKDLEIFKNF

Work on `COc1ccc2c3ccnc(C(F)(F)F)c3n(CCCCN)c2c1` yielded an inhibition [1] of 0%, an inhibition [2] of 13% and an inhibition [3] of 4%. It also gave an inhibition [4] of 4%, an inhibition [5] of 8% and an inhibition [6] of 7%. It also gave an inhibition [7] of 2%, an inhibition [8] of 10% and an inhibition [9] of 11%. It also gave an inhibition [10] of 4%, an inhibition [11] of 0% and an inhibition [12] of 8%. The inhibition [13] was 3%, the inhibition [14] was 0% and the inhibition [15] was 78%. For the same molecule, the inhibition [16] was 28%, the inhibition [17] was 27% and the inhibition [18] was 60%. The inhibition [19] was 53%, the inhibition [20] was 0% and the inhibition [21] was 97%. The inhibition [22] was 21%, the inhibition [23] was 48% and the inhibition [24] was 0%. The inhibition [25] was 15%, the inhibition [26] was 13% and the inhibition [27] was 48%. The inhibition [28] was 52%, the inhibition [29] was 78% and the inhibition [30] was 5%. The inhibition [31] was 37%, the inhibition [32] was 36% and the inhibition [33] was 13%. The inhibition [34] was 35%, the inhibition [35] was 68% and the inhibition [36] was 22%. The inhibition [37] was 14%, the inhibition [38] was 28% and the inhibition [39] was 8%. It also gave an inhibition [40] of 0%, an inhibition (TAK1/TAB1 (Homo sapiens)) of 12% and an inhibition [41] of 4%.
